Results reported in publication PMC7693676, “Suberitamides A–C, Aryl Alkaloids from a Pseudosuberites sp. Marine Sponge that Inhibit Cbl-b Ubiquitin Ligase Activity” (Marine Drugs, 2020).
pIC50: −log10 of the molar value.

Biological target: T1, Cbl-b (Homo sapiens, UniProt Q13191)
T1 construct: gene CBLB; N1/2 Construct; with E1 (UBE1) and E2 (UBC-H5) with ubiquitin in the assay
Assay: in vitro Cbl-b autoubiquitination assay (UBA-coated plate, biotin-ubiquitin/avidin-HRP fluorescence), dose response
Assay type: biochemical

T1 sequence (Q13191 whole entry): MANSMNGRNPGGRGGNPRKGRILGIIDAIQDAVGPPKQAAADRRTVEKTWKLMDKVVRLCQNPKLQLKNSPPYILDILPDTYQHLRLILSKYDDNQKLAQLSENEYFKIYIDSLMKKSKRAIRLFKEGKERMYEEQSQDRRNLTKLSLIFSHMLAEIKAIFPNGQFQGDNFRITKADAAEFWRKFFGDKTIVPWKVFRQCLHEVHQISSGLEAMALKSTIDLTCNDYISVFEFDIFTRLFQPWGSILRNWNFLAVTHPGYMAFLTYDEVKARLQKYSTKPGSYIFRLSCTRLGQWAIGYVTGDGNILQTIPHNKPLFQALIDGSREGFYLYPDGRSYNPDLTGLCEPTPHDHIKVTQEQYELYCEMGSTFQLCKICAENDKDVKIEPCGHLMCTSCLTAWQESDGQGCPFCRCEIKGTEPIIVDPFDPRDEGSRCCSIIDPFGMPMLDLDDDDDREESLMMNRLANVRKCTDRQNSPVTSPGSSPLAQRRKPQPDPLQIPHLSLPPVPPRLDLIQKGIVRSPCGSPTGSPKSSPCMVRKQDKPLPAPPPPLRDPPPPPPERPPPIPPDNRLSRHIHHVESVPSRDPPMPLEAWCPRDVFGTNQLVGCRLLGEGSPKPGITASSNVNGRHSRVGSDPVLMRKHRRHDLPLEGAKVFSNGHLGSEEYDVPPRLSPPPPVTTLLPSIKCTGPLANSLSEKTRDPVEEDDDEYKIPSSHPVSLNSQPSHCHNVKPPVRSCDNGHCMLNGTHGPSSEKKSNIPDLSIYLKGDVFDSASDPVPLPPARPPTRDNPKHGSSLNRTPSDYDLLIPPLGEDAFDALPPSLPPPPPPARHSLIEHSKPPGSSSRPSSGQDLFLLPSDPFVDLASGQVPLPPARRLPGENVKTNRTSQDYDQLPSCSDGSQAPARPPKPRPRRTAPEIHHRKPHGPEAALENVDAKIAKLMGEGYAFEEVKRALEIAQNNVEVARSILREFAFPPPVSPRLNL
T1 sequence (P22314 2-1058 partner): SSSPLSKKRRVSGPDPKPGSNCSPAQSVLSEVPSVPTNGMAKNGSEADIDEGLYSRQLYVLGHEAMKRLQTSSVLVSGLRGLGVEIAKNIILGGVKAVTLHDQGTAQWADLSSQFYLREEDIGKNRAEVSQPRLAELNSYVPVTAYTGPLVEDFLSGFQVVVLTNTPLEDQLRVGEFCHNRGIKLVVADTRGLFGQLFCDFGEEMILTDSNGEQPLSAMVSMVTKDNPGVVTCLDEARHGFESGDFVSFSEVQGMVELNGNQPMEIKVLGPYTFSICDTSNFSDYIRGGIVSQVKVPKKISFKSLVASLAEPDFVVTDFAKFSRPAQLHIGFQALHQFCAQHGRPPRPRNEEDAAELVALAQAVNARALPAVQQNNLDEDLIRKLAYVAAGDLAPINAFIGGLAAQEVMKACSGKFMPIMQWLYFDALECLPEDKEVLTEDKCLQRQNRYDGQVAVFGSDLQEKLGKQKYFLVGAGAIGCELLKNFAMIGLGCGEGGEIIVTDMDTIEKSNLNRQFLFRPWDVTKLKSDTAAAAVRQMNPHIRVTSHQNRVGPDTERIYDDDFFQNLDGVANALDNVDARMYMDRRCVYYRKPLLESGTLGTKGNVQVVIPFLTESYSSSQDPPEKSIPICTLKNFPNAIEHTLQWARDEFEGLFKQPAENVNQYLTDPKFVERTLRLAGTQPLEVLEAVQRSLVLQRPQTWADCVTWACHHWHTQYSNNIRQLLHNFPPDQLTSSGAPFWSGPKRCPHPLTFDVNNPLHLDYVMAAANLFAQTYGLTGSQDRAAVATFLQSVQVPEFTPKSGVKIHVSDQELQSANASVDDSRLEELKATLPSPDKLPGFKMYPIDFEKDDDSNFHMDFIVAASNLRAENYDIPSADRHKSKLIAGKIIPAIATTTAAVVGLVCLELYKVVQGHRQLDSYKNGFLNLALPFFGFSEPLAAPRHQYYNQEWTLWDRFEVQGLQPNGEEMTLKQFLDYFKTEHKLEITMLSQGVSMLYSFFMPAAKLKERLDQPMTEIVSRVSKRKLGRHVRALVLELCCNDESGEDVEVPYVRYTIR

pIC50	Compound
~4.96	CO[C@@]1(C(=O)N/C=C/c2ccc(O)cc2)O[C@](O)(C(=O)N/C=C/c2ccc(O)cc2)[C@@H](c2ccc(O)c(O)c2)[C@@H]1c1ccc(O)c(O)c1 [compound 1, suberitamide A]
~4.96	O=C(N/C=C/c1ccc(O)cc1)c1c(-c2ccc(O)c(O)c2)c(-c2ccc(O)c(O)c2)c(C(=O)N/C=C/c2ccc(O)cc2)n1CCc1ccc(O)cc1 [compound 2, suberitamide B]
